Data reported in US20250019385A1, “SPIROCYCLIC ANNULATED 2-AMINO-3-CYANO THIOPHENES AND DERIVATIVES FOR THE TREATMENT OF CANCER” (Boehringer Ingelheim International GmbH, priority 2023, published 2025).

Assay: Caco-2 assay (permeability and efflux ratio)
Assay type: in vitro ADME
Conditions: human, Caco-2 apical to basolateral permeability, pH 7.4, read-out: Caco PappAB
Method: The assay provides information on the potential of a compound to pass the cell membrane, on the extent of oral absorption as well as on whether the compound is actively transported by uptake and/or efflux transporters. Permeability measurements across polarized, confluent Caco-2 cell monolayers grown on permeable filter supports (Corning, catalog #3391) are used. 10 μM test compound solution in assay buffer (128.13 mM NaCl, 5.36 mM KCl, 1 mM MgSO4, 1.8 mM CaCl2), 4.17 mM NaHCO3, 1.19 mM Na2HPO4, 0.41 mM NaH2PO4, 15 mM 2-[4-(2-hydroxyethyl)piperazin-1-yl]ethanesulfonic acid (HEPES), 20 mM glucose, pH 7.4) was added to the donor compartment of the cell chamber containing a monolayer of Caco-2 cells in between the donor and the receiver compartment. The receiver and donor compartments contain 0.25% bovine serum albumine (BSA) in assay buffer. Passive diffusion and/or active transport of compounds across the monolayer is measured in both apical to basolateral (a-b) and basolateral to apical (b-a) direction. a-b permeability (PappAB) represents drug absorption from the intestine into the blood and b-a permeability (PappBA) drug secretion from the blood back into the intestine via both passive permeability as well as active transport mechanisms mediated by efflux and uptake transporters that are expressed on the Caco-2 cells. After a pre-incubation of 25-30 min at 37° C., at predefined time points (0, 30, 60 and 90 min), samples were taken from the receiver and donor compartment, respectively. Concentrations of test compounds in samples were measured by HPLC/MS/MS, samples from the donor compartment were diluted 1:50 (v:v) with assay buffer, samples from receiver compartment were measured without dilution.
Apparent permeabilities in a-b (PappAB) and b-a (PappBA) directions are calculated according to the formula:
[formula] • Vrec [mL]: buffer volume in receiver compartment • Cdon [μmol/mL]: concentration of test compound in donor compartment at t=0 • ΔCrec: difference between concentrations of test compound in receiver compartment at start and end of incubation time • Δt: Incubation time • Vrec·ΔCrec/Δt [μmol/min]: Amount of compound transferred to receiver compartment per time • A [cm^2]: filter surface
Caco-2 efflux ratios (ER) are calculated as the ratio of PappBA/PappAB.

SMILES | Papp A→B at 90 min, 10 μM [×10⁻⁶ cm/s]
C[C@H](Oc1nc(-c2onc3c2CCC[C@@]32CCCc3sc(N)c(C#N)c32)nc2c1n(C)c(=O)n2[C@@]12COC[C@@H]1C2)[C@@H]1CC[C@H](C)N1C [I-45] | 43
C[C@H](Oc1nc(-c2noc3c2CCC[C@@]32CCCc3sc(N)c(C#N)c32)nc2c1CN(C1COC1)C[C@]21CCOC1)[C@@H]1CC[C@H](C)N1C [II-17] | 16
COCCn1c(=O)n([C@@H]2CCOC2)c2nc(-c3onc4c3CCC[C@@]43CCCc4sc(N)c(C#N)c43)nc(O[C@@H](C)[C@@H]3CCCN3C)c21 [I-1] | 18
CO[C@@H]1C[C@@H]([C@H](C)Oc2nc(-c3noc4c3CCC[C@@]43CCCc4sc(N)c(C#N)c43)nc3c2CN(C2COC2)C[C@]32CCOC2)N(C)C1 [II-14] | 3.2
CO[C@H]1CCN(C)[C@@H]1[C@H](C)Oc1nc(-c2noc3c2CCC[C@@]32CCCc3sc(N)c(C#N)c32)nc2c1CN(C1COC1)C[C@]21CCOC1 [II-13] | 18
C[C@H](Oc1nc(-c2noc3c2CCC[C@@]32SCCc3sc(N)c(C#N)c32)nc2c1COC[C@]21CCOC1)[C@@H]1CCCN1C [II-16] | 12
CO[C@@H]1C[C@@H]([C@H](C)Oc2nc(-c3onc4c3CCC[C@@]43CCCc4sc(N)c(C#N)c43)nc3c2n(C)c(=O)n3[C@@H]2CCOC2)N(C)C1 [I-3] | 29
C[C@H](Oc1nc(-c2noc3c2CCC[C@@]32CCCc3sc(N)c(C#N)c32)nc2c1CN(C1COC1)C[C@]21CCOC1)[C@@H]1CCCN1C [II-12] | 2.9
C[C@H](Oc1nc(-c2onc3c2CCC[C@@]32CCCc3sc(N)c(C#N)c32)nc2c1CN(C1COC1)C[C@]21CCOC1)[C@@H]1CCCN1C [I-56] | 8.4
CO[C@H]1CCN(C)[C@@H]1[C@H](C)Oc1nc(-c2onc3c2CCC[C@@]32CCCc3sc(N)c(C#N)c32)nc2c1n(C)c(=O)n2[C@H]1COC[C@@H](C)C1 [I-51] | 36
CO[C@@H]1C[C@@H]([C@H](C)Oc2nc(-c3onc4c3CCC[C@@]43CCCc4sc(N)c(C#N)c43)nc3c2n(C)c(=O)n3[C@H]2COC[C@@H](C)C2)N(C)C1 [I-52] | 34
CO[C@@H]1C[C@@H]([C@H](C)Oc2nc(-c3noc4c3CCC[C@@]43CCCc4sc(N)c(C#N)c43)nc3c2n(C)c(=O)n3[C@@]23COC[C@@H]2C3)N(C)C1 [II-6] | 13
CO[C@@H]1C[C@@H]([C@H](C)Oc2nc(-c3onc4c3CCC[C@@]43CCCc4sc(N)c(C#N)c43)nc3c2n(C)c(=O)n3[C@@]23COC[C@@H]2C3)N(C)C1 [I-46] | 21
C[C@H](Oc1nc(-c2noc3c2CCC[C@@]32CCCc3sc(N)c(C#N)c32)nc2c1n(C)c(=O)n2[C@H]1CO[C@@H](C)C1)[C@@H]1CCCN1C [II-5] | 8.7
CO[C@@H]1C[C@@H]([C@H](C)Oc2nc(-c3noc4c3CCC[C@@]43CCCc4sc(N)c(C#N)c43)nc3c2COC[C@]32CCOC2)N(C)C1 [II-11] | 27

Same assay, conditions: human, pH 7.4, Caco-2 efflux ratio PappBA/PappAB, read-out: Caco ER

SMILES | efflux ratio at 90 min, 10 μM
C[C@H](Oc1nc(-c2onc3c2CCC[C@@]32CCCc3sc(N)c(C#N)c32)nc2c1n(C)c(=O)n2[C@@]12COC[C@@H]1C2)[C@@H]1CC[C@H](C)N1C [I-45] | 0.6
C[C@H](Oc1nc(-c2noc3c2CCC[C@@]32CCCc3sc(N)c(C#N)c32)nc2c1CN(C1COC1)C[C@]21CCOC1)[C@@H]1CC[C@H](C)N1C [II-17] | 3.4
COCCn1c(=O)n([C@@H]2CCOC2)c2nc(-c3onc4c3CCC[C@@]43CCCc4sc(N)c(C#N)c43)nc(O[C@@H](C)[C@@H]3CCCN3C)c21 [I-1] | 3.1
CCn1c(=O)n([C@@H]2CCCOC2)c2nc(-c3onc4c3CCC[C@@]43CCCc4sc(N)c(C#N)c43)nc(O[C@@H](C)[C@@H]3CCCN3C)c21 [I-30] | 0.7
CO[C@@H]1C[C@@H]([C@H](C)Oc2nc(-c3noc4c3CCC[C@@]43CCCc4sc(N)c(C#N)c43)nc3c2CN(C2COC2)C[C@]32CCOC2)N(C)C1 [II-14] | 15.3
CO[C@H]1CCN(C)[C@@H]1[C@H](C)Oc1nc(-c2noc3c2CCC[C@@]32CCCc3sc(N)c(C#N)c32)nc2c1CN(C1COC1)C[C@]21CCOC1 [II-13] | 2.9
C[C@H](Oc1nc(-c2noc3c2CCC[C@@]32SCCc3sc(N)c(C#N)c32)nc2c1COC[C@]21CCOC1)[C@@H]1CCCN1C [II-16] | 3.8
CO[C@@H]1C[C@@H]([C@H](C)Oc2nc(-c3onc4c3CCC[C@@]43CCCc4sc(N)c(C#N)c43)nc3c2n(C)c(=O)n3[C@@H]2CCOC2)N(C)C1 [I-3] | 1.9
C[C@H](Oc1nc(-c2noc3c2CCC[C@@]32CCCc3sc(N)c(C#N)c32)nc2c1CN(C1COC1)C[C@]21CCOC1)[C@@H]1CCCN1C [II-12] | 21.6
C[C@H](Oc1nc(-c2onc3c2CCC[C@@]32CCCc3sc(N)c(C#N)c32)nc2c1CN(C1COC1)C[C@]21CCOC1)[C@@H]1CCCN1C [I-56] | 7.1
CO[C@H]1CCN(C)[C@@H]1[C@H](C)Oc1nc(-c2onc3c2CCC[C@@]32CCCc3sc(N)c(C#N)c32)nc2c1n(C)c(=O)n2[C@H]1COC[C@@H](C)C1 [I-51] | 0.5
CO[C@@H]1C[C@@H]([C@H](C)Oc2nc(-c3onc4c3CCC[C@@]43CCCc4sc(N)c(C#N)c43)nc3c2n(C)c(=O)n3[C@H]2COC[C@@H](C)C2)N(C)C1 [I-52] | 0.6
CO[C@@H]1C[C@@H]([C@H](C)Oc2nc(-c3noc4c3CCC[C@@]43CCCc4sc(N)c(C#N)c43)nc3c2n(C)c(=O)n3[C@@]23COC[C@@H]2C3)N(C)C1 [II-6] | 4.3
CO[C@@H]1C[C@@H]([C@H](C)Oc2nc(-c3onc4c3CCC[C@@]43CCCc4sc(N)c(C#N)c43)nc3c2n(C)c(=O)n3[C@@]23COC[C@@H]2C3)N(C)C1 [I-46] | 1.8
C[C@H](Oc1nc(-c2noc3c2CCC[C@@]32CCCc3sc(N)c(C#N)c32)nc2c1n(C)c(=O)n2[C@H]1CO[C@@H](C)C1)[C@@H]1CCCN1C [II-5] | 5.9
CO[C@@H]1C[C@@H]([C@H](C)Oc2nc(-c3noc4c3CCC[C@@]43CCCc4sc(N)c(C#N)c43)nc3c2COC[C@]32CCOC2)N(C)C1 [II-11] | 0.9
